# Measured values reported in ChEMBL document CHEMBL5696442, “Discovery of type II inhibitors of TGFβ-activated kinase 1 (TAK1) and mitogen-activated protein kinase kinase kinase kinase 2 (MAP4K2)” (J Med Chem, 2015).
# The source made the active and inactive calls. No cut-off for these calls is given here.
# What was measured:
# [1] = biological target: Glycogen synthase kinase-3 beta (Homo sapiens) (UniProt P49841); test: Inhibition of GSK3B Lys2 labeling site in human A-375 cells at 0.5 uM by KiNativ Profiling analysis relative to control; type: cell-based
# [2] = system: Receptor-type tyrosine-protein kinase FLT3 (Homo sapiens), P36888 [D835H]; test: Inhibition of FLT3 D835H mutant (unknown origin) at 1 uM by Ambit Kinomescan binding assay relative to control; values are per cent of control
# [3] = biological target: T1, Aurora kinase A (Homo sapiens) (UniProt O14965); test: Inhibition of AURKA (unknown origin) at 10 uM by Ambit Kinomescan binding assay
# T1 sequence (whole entry): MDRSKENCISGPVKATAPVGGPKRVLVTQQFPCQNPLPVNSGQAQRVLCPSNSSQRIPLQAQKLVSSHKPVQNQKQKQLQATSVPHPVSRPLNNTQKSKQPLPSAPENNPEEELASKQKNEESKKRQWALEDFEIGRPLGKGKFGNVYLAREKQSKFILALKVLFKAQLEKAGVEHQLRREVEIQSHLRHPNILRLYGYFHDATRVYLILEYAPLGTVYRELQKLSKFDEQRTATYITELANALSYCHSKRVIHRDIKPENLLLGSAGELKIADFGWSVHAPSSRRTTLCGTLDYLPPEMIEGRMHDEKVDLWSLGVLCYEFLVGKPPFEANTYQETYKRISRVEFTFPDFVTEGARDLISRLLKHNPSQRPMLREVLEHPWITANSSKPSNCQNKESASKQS
# [4] = biological target: Aurora kinase B (Homo sapiens) (UniProt Q96GD4); test: Inhibition of AURKB (unknown origin) at 10 uM by Ambit Kinomescan binding assay
# [5] = biological target: Mitogen-activated protein kinase kinase kinase 10 (Homo sapiens) (UniProt Q02779); test: Inhibition of MLK2 (unknown origin) at 10 uM by Ambit Kinomescan binding assay
# [6] = biological target: Misshapen-like kinase 1 (Homo sapiens) (UniProt Q8N4C8); test: Inhibition of ZC3/MINK Lys2 labeling site in human A-375 cells at 5 uM by KiNativ Profiling analysis relative to control; type: cell-based
# [7] = biological target: TRAF2 and NCK-interacting protein kinase (Homo sapiens) (UniProt Q9UKE5); test: Inhibition of TNIK K1 labeling site in human Huh-7 cells at 10 uM by KiNativ Profiling analysis relative to control; type: cell-based
# [8] = biological target: T2, Serine/threonine-protein kinase Nek1 (Homo sapiens) (UniProt Q96PY6); test: Inhibition of NEK1 K2 labeling site in human Huh-7 cells at 10 uM by KiNativ Profiling analysis relative to control; type: cell-based
# T2 sequence (whole entry): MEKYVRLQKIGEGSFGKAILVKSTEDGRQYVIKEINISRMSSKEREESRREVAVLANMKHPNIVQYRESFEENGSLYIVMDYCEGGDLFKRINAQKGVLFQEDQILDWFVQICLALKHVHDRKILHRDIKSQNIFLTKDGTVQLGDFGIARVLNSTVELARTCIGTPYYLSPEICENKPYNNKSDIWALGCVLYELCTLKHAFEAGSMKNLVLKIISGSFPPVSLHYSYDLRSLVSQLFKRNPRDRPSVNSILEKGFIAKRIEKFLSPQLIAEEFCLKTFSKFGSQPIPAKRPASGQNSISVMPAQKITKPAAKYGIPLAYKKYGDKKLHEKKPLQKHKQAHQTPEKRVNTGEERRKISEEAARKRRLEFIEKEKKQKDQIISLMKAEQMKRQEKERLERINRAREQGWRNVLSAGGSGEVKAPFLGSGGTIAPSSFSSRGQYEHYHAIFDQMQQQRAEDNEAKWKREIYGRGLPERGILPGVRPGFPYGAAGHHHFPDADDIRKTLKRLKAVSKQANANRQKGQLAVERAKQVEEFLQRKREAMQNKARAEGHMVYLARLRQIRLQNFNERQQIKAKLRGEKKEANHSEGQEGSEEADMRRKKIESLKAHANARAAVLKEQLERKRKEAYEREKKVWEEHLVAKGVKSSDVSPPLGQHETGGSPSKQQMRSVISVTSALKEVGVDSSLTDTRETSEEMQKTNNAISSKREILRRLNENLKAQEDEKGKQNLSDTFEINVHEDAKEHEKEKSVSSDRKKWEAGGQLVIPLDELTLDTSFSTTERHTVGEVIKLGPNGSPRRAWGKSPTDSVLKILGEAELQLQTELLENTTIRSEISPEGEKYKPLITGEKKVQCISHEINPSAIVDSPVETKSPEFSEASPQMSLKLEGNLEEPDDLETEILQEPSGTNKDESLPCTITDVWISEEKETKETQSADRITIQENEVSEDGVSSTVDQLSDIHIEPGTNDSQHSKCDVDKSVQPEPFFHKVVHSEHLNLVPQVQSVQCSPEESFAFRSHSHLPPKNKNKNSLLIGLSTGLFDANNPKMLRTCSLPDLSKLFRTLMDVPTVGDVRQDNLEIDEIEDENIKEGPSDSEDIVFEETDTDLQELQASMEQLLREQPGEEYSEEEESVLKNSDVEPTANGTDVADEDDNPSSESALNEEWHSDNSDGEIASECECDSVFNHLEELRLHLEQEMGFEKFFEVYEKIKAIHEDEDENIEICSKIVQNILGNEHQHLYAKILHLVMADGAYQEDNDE
# [9] = biological target: Rho-associated protein kinase (Homo sapiens) (UniProt O75116+Q13464); test: Inhibition of ROCK1/2 K2 labeling site in human Huh-7 cells at 10 uM by KiNativ Profiling analysis relative to control; type: cell-based
# [10] = Inhibition of p70S6K Lys2 labeling site in human Huh-7 cell lysate at 1 uM by KiNativ Profiling analysis relative to control; conditions: condition cancer
# [11] = biological target: T3, Phosphatidylinositol 5-phosphate 4-kinase type-2 alpha (Homo sapiens) (UniProt P48426); test: Inhibition of PIP4K2A ATP labeling site harbouring TVKHGAGAEISTVNPEQYSK in human Huh-7 cell lysate at 1 uM by KiNativ Profiling analysis relative to control; type: subcellular
# T3 sequence (whole entry): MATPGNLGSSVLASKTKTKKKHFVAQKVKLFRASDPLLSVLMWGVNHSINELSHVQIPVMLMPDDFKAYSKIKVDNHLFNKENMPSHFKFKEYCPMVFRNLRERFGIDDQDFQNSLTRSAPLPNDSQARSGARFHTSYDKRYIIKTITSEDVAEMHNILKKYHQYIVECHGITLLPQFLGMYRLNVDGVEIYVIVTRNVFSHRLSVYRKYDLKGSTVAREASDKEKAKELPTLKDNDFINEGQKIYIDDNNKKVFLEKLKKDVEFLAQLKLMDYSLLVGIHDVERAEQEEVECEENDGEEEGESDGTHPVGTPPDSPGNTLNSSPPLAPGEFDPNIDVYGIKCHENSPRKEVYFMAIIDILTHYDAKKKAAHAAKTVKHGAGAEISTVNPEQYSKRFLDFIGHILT
# [12] = biological target: Serine/threonine-protein kinase WNK1 (Homo sapiens) (UniProt Q9H4A3); test: Inhibition of Wnk1 ACT labeling site in human Huh-7 cell lysate at 1 uM by KiNativ Profiling analysis relative to control; type: subcellular
# Chain of Misshapen-like kinase 1 (Homo sapiens) (Q8N4C8 whole entry, looked up): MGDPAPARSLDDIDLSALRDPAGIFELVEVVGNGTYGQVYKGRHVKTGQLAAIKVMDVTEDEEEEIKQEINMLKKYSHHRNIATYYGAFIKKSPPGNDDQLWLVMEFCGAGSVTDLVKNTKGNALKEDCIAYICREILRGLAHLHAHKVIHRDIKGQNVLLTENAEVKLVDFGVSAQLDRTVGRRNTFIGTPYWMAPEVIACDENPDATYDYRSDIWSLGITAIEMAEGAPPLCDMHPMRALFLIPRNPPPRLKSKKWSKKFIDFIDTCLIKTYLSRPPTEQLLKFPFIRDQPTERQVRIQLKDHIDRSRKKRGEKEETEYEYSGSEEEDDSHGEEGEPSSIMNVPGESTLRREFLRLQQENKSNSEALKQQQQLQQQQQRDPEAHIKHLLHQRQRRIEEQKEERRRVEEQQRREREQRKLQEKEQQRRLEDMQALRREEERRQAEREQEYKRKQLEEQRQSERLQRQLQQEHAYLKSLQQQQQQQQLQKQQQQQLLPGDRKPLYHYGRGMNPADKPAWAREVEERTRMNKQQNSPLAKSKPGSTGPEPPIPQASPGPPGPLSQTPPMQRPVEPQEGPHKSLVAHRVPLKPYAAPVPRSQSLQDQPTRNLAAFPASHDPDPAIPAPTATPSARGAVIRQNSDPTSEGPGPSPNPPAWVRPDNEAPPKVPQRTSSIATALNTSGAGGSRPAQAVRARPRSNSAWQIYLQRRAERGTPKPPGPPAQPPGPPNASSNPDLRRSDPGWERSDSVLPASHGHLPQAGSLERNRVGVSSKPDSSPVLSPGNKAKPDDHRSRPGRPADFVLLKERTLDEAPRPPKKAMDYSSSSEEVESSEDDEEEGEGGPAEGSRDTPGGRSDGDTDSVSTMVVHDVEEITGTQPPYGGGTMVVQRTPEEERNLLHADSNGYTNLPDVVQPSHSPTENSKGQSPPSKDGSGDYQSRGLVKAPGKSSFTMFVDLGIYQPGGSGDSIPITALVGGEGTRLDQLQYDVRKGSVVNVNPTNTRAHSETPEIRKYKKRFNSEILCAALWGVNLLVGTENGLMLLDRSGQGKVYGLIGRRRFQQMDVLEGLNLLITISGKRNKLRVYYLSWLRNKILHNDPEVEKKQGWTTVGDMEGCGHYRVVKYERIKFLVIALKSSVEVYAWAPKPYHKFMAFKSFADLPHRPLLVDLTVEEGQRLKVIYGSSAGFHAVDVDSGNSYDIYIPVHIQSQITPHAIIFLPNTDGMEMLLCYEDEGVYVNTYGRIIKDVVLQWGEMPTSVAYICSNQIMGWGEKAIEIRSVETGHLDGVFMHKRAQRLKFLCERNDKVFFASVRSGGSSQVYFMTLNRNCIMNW
# Chain of Mitogen-activated protein kinase kinase kinase 10 (Homo sapiens) (Q02779 whole entry, looked up): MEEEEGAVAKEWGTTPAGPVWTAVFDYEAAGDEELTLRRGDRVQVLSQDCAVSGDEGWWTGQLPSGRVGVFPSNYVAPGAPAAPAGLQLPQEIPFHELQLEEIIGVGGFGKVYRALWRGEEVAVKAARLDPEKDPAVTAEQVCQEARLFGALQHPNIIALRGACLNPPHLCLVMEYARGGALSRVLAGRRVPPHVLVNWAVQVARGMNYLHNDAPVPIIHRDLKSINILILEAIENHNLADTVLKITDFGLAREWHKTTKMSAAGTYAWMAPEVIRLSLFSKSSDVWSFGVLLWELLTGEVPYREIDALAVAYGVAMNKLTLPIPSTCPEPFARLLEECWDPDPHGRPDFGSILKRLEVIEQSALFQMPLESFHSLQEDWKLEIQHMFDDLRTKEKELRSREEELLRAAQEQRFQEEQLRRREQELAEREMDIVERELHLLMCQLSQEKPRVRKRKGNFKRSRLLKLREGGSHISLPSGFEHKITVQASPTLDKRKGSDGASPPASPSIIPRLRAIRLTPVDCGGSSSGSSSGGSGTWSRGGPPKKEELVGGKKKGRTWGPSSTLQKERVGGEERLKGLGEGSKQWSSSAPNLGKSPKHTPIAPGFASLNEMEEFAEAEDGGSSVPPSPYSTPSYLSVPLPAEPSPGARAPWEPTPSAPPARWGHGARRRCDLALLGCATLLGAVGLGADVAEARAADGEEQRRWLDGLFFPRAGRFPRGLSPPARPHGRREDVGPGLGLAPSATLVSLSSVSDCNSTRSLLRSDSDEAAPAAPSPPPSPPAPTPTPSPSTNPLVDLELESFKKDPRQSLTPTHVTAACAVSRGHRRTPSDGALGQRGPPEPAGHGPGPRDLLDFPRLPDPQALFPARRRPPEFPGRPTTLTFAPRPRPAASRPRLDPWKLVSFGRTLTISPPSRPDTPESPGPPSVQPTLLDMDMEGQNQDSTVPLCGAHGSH
# Chain of Rho-associated protein kinase (Homo sapiens) (O75116 whole entry, looked up): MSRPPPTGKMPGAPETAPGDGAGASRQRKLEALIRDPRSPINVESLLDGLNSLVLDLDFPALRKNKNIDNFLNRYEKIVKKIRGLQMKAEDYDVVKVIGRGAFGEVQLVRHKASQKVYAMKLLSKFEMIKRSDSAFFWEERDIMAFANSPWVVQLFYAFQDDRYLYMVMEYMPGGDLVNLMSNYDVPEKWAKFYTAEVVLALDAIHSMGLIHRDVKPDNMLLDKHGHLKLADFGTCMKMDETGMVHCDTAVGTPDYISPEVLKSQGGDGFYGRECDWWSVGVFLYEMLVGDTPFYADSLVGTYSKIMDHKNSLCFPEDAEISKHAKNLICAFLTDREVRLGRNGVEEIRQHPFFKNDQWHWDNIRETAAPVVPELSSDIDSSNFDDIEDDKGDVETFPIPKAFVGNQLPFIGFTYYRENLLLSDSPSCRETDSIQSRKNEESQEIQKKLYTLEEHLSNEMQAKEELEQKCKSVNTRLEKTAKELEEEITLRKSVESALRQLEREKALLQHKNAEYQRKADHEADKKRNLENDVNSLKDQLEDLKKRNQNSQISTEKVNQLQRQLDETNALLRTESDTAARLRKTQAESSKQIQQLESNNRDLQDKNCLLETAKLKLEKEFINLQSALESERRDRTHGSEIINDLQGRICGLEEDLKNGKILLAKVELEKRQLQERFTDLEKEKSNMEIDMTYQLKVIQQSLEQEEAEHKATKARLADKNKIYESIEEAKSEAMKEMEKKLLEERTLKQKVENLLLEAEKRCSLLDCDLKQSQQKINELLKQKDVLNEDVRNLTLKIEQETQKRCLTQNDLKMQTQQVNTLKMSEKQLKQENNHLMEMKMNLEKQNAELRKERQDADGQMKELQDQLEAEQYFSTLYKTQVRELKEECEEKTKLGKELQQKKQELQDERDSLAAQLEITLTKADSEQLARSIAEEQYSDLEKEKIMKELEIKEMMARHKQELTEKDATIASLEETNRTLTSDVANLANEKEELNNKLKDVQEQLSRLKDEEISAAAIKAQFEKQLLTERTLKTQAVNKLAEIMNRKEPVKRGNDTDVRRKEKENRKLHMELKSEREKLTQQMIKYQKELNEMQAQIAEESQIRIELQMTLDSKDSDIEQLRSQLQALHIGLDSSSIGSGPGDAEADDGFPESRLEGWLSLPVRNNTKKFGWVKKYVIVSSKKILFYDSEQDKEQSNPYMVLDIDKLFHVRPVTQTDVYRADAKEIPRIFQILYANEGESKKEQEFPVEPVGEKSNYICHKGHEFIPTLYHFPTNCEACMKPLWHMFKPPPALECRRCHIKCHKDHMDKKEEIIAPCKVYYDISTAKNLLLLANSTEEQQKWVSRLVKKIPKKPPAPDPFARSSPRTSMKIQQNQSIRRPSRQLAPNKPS
# Chain of Rho-associated protein kinase (Homo sapiens) (Q13464 whole entry, looked up): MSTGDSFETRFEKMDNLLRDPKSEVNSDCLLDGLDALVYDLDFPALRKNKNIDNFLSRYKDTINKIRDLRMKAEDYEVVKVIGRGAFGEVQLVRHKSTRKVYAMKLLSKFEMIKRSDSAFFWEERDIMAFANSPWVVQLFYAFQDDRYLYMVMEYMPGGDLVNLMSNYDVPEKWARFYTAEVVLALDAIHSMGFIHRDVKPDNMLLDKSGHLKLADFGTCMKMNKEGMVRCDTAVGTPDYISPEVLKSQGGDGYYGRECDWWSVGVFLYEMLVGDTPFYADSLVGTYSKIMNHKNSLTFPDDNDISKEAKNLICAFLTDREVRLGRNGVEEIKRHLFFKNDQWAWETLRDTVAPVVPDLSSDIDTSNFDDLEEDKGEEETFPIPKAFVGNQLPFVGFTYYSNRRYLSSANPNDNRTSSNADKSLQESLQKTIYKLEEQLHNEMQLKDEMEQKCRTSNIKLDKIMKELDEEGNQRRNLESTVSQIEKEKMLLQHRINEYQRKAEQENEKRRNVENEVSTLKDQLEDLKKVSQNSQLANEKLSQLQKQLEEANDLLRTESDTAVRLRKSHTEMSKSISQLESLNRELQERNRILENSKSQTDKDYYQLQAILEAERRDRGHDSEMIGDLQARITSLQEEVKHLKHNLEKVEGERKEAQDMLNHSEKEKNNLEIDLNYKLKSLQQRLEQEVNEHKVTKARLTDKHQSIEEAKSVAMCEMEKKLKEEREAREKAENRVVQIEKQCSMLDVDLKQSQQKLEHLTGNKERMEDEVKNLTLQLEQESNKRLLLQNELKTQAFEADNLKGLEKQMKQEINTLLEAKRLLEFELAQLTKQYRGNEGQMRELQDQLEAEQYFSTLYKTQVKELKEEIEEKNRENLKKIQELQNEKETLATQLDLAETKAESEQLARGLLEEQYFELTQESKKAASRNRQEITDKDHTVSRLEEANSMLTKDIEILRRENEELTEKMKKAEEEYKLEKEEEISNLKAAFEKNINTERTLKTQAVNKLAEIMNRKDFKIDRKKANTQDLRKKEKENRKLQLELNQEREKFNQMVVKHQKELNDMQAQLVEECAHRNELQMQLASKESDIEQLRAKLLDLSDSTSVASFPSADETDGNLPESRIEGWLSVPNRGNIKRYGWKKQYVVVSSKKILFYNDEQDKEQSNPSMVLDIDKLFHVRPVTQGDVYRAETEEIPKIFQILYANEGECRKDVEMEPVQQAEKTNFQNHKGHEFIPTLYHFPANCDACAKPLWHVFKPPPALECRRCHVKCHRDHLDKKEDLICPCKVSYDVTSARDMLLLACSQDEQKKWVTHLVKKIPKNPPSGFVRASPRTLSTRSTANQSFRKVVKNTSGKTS
structure (smiles),measurement,setting,value
CCN1CCN(Cc2ccc(NC(=O)c3ccc(C)c(/C=C/c4cnc5[nH]ccc5c4OC)c3)cc2C(F)(F)F)CC1,inhibition,[1],34.9%
same,residual activity,[2],2.6%
CCN1CCN(Cc2ccc(NC(=O)c3ccc(C)c(Oc4ccnc5[nH]ccc45)c3)cc2C(F)(F)F)CC1,inhibition,[3],inactive
same,inhibition,[4],inactive
same,inhibition,[5],inactive
same,inhibition,[6],92.7%
same,inhibition,[7],74.5%
same,inhibition,[8],-4.4%
same,inhibition,[9],4.1%
CNc1cc(Oc2cc(C(=O)Nc3cc(N4CCN(C)CC4)cc(C(F)(F)F)c3)ccc2C)ncn1,inhibition at 1 µM,[10],4.9%
same,inhibition,[11],-5.4%
same,inhibition,[12],-6.9%
